Measured values reported in patent US20040110771A1, “7-(r)-aminotriazolopyrimidines, the production thereof and use of the same for combatting phytopathogenic fungi” (priority 2000, published 2004).

Experiments:
Format in all cases: in vivo
Pyrenophora teres = assay: Activity against net blotch of barley caused by Pyrenophora teres; details: barley seedlings "Igri", inoculated 24 h after spraying, 6 days
Description: (§1) The active compounds were prepared separately or jointly as a 10% strength emulsion in a mixture of 70% by weight of cyclohexanone, 20% by weight of Nekanil® LN (Lutensol® AP6, wetting agent having emulsifying and dispersing action based on ethoxylated alkylphenols) and 10% by weight of Wettol® EM (nonionic emulsifier based on ethoxylated castor oil) and diluted with water to the desired concentration.
Leaves of potted barley seedlings of the cultivar “Igri” were sprayed to runoff point with an aqueous preparation of active compound which had been prepared from a stock solution made of 10% of active compound, 85% of cyclohexanone and 5% of emulsifier and were inoculated 24 hours after the spray coating had dried on with an aqueous spore suspension of Pyrenophora teres, the net blotch pathogen. The test plants were then placed in a greenhouse at 20-24° C. and 95-100% relative atmospheric humidity. After 6 days, the extent of the development of the disease was determined visually in % infection of the entire leaf area.

[1] = test system: Blumeria graminis forma specialis tritici; assay: Activity against mildew of wheat caused by Blumeria graminis forma specialis tritici; details: wheat seedlings "Kanzler", dusted with spores 24 h after spraying, 7 days
Description: as §1
Leaves of potted wheat seedlings of the cultivar “Kanzler” were sprayed to runoff point with an aqueous preparation of active compound which had been prepared from a stock solution made of 10% of active compound, 85% of cyclohexanone and 5% of emulsifier and were dusted 24 hours after the spray coating had dried on with spores of mildew of wheat (Blumeria graminis forma specialis tritici). The test plants were then placed in a greenhouse at 20-24° C. and 60-90% relative atmospheric humidity. After 7 days, the extent of the mildew development was determined visually in % infection of the entire leaf area.

Puccinia recondita = assay: Curative activity against brown rust of wheat caused by Puccinia recondita; details: curative spray 24 h after inoculation, wheat seedlings "Kanzler", 7 days
Description: as §1
Leaves of potted wheat seedlings of the cultivar “Kanzler” were dusted with spores of brown rust (Puccinia recondita). The pots were then placed in a chamber with high atmospheric humidity (90 to 95%) at 20-22° C. for 24 hours. During this period, the spores germinated and the germinal tubes penetrated into the leaf tissue. The following day, the infected plants were sprayed to runoff point with an aqueous preparation of active compound which had been prepared from a stock solution made of 10% of active compound, 85% of cyclohexanone and 5% of emulsifier. After the spray coating had dried on, the test plants were cultivated in a greenhouse at 20-22° C. and 65-70% relative atmospheric humidity for 7 days. The extent of the rust fungus development on the leaves was then determined.

Compound	% infection of the leaves after application of an aqueous preparation comprising . . . ppm of active compound (Pyrenophora teres; 16 ppm) [%]	% infection of the leaves after application of an aqueous preparation comprising . . . ppm of active compound (Pyrenophora teres; 63 ppm) [%]	% infection of the leaves after application of an aqueous preparation comprising . . . ppm of active compound (Pyrenophora teres; 250 ppm) [%]	% infection of the leaves after application of an aqueous preparation comprising . . . ppm of active compound ([1]; 16 ppm) [%]	% infection of the leaves after application of an aqueous preparation comprising . . . ppm of active compound ([1]; 63 ppm) [%]	% infection of the leaves after application of an aqueous preparation comprising . . . ppm of active compound ([1]; 250 ppm) [%]	% infection of the leaves after application of an aqueous preparation comprising . . . ppm of active compound (Puccinia recondita; 250 ppm) [%]	% infection of the leaves after application of an aqueous preparation comprising . . . ppm of active compound (Puccinia recondita; 16 ppm) [%]	% infection of the leaves after application of an aqueous preparation comprising . . . ppm of active compound (Puccinia recondita; 63 ppm) [%]
Cc1cccc(F)c1-c1c(Cl)nc2ncnn2c1NC(C)C(C)(C)C (single isomer, unassigned) [I.-12a]	0	0	0	7	7	7	–	–	–
Cc1cccc(F)c1-c1c(Cl)nc2ncnn2c1N[C@H](C)C(C)(C)C (single isomer, unassigned) [I.-12b]	7	7	0	60	60	60	–	–	–
C[C@@H](Nc1c(-c2c(F)cccc2Cl)c(Cl)nc2ncnn12)C(C)(C)C [I.-3]	–	–	–	–	–	–	20	–	–
CC(Nc1c(-c2c(F)cccc2F)c(Cl)nc2ncnn12)C(C)(C)C (stereo not shown) [I.-6]	0	0	–	–	50	40	–	–	–
CC(Nc1c(-c2c(Cl)cccc2Cl)c(Cl)nc2ncnn12)C(C)(C)C (stereo not shown) [I.-9]	0	0	0	–	–	–	–	–	–
C[C@@H](Nc1c(-c2c(F)cc(F)cc2F)c(Cl)nc2ncnn12)C(C)(C)C [I.-15, (R)-5-chloro-7-(3,3-dimethylbut-2-yl)amino-6-(2,4,6-trifluoro-phenyl)-1,2,4-triazolo[1,5-a]pyrimidine]	–	–	–	7	7	3	0	0	0
Cc1cc(F)ccc1-c1c(Cl)nc2ncnn2c1NC(C)C(C)(C)C (stereo not shown) [I.-24]	–	–	–	10	5	3	–	–	–
CCCCCC(C)Nc1c(-c2c(F)cc(F)cc2F)c(Cl)nc2ncnn12 (stereo not shown) [I.-28]	90	40	20	–	–	–	–	–	–
C[C@@H](Nc1c(-c2c(F)cc(F)cc2F)c(Cl)nc2ncnn12)C1CCCCC1 [I.-31]	40	3	0	15	7	5	–	–	–
CC[C@@H](C)Nc1c(-c2ccccc2Cl)c(Cl)nc2ncnn12 [I.-42]	–	–	–	–	–	–	5	30	20
CC(Nc1c(-c2c(F)cccc2Cl)c(Cl)nc2ncnn12)C(C)(C)C [comparison (S)-amine of I.-3]	–	–	–	–	–	–	100	–	–
C[C@H](Nc1c(-c2c(F)cccc2F)c(Cl)nc2ncnn12)C(C)(C)C [comparison (S)-amine of I.-6]	60	5	–	–	90	90	–	–	–
C[C@H](Nc1c(-c2c(Cl)cccc2Cl)c(Cl)nc2ncnn12)C(C)(C)C [comparison (S)-amine of I.-9]	100	100	100	–	–	–	–	–	–
Cc1cccc(F)c1-c1c(Cl)nc2ncnn2c1NC(C)C(C)(C)C [comparison (S)-amine of I.-12a]	100	100	100	100	100	100	–	–	–
Cc1cccc(F)c1-c1c(Cl)nc2ncnn2c1NC(C)C(C)(C)C [comparison (S)-amine of I.-12b]	100	100	100	100	100	100	–	–	–
C[C@H](Nc1c(-c2c(F)cc(F)cc2F)c(Cl)nc2ncnn12)C(C)(C)C [comparison (S)-amine of I.-15]	–	–	–	90	80	40	100	100	100
Cc1cc(F)ccc1-c1c(Cl)nc2ncnn2c1NC(C)C(C)(C)C [comparison (S)-amine of I.-24]	–	–	–	60	60	15	–	–	–
CCCCC[C@H](C)Nc1c(-c2c(F)cc(F)cc2F)c(Cl)nc2ncnn12 [comparison (S)-amine of I.-28]	100	100	100	–	–	–	–	–	–
C[C@H](Nc1c(-c2c(F)cc(F)cc2F)c(Cl)nc2ncnn12)C1CCCCC1 [comparison (S)-amine of I.-31]	100	80	80	50	50	15	–	–	–
CCC(C)Nc1c(-c2ccccc2Cl)c(Cl)nc2ncnn12 [comparison (S)-amine of I.-42]	–	–	–	–	–	–	15	100	60
